From PubChem BioAssay AID200 (DTP/NCI, 2004)
Several values for one entry are separate records, joined by “and”; a condition that tells them apart may be missing. Identical values can stand only once. Toxic doses and inconclusive results are not listed. *1 amine or outer side, *2 acyl side, *3 side chain or, on linkers, in order; H or OH if unused. Where a SMILES comes first, the peptide text is derived from it. Bridges are numbered along the chain shown (N, C = ends). Roman numbers before positions name the chains, in order. [ ]: non-standard residue; d: D form. Actinocin(9to1) = Cc1c2oc3c(C)ccc(C(=O)[*:1])c3nc-2c(C(=O)[*:2])c(N)c1=O; NMeA = CN[CH](C)C(=O)O; Sar = CNCC(=O)O

Tested on: B6C3F1 mice, B16 melanoma ip, median survival T/C
Test: NCI In Vivo Anticancer Drug Screen. Data for tumor model B16 Melanoma (intraperitoneal) in B6C3F1 mice
Settings: endpoint: median survival time, higher = longer survival
Procedure: The antitumor activity of compounds was measured in mice bearing transplantable tumors. Survival or tumor size were measured and the results are expressed as the measurement made in the treated group (T) divided by the measurement made in the vehicle treated control group (C). The tumor model used in this assay is B16 Melanoma (intraperitoneal) in B6C3F1 mice

[1] = dose: 6.25 mg/kg/injection, schedule: Q01DX009 (ip), vehicle: saline with Tween-80
[2] = dose: 12.5 mg/kg/injection, schedule: Q01DX009 (ip), vehicle: saline with Tween-80
[3] = dose: 25.0 mg/kg/injection, schedule: Q01DX009 (ip), vehicle: saline with Tween-80
[4] = dose: 50.0 mg/kg/injection, schedule: Q01DX009 (ip), vehicle: saline with Tween-80
[5] = dose: 50.0 mg/kg/injection, schedule: Q01DX009 (ip), vehicle: saline
[6] = dose: 400.0 mg/kg/injection, schedule: Q01DX009 (ip), vehicle: saline
[7] = dose: 100.0 mg/kg/injection, schedule: Q01DX009 (ip), vehicle: saline with Tween-80
[8] = dose: 100.0 mg/kg/injection, schedule: Q01DX009 (ip), vehicle: Klucel (hydroxypropylcellulose) (HPC)
[9] = dose: 200.0 mg/kg/injection, schedule: Q01DX009 (ip), vehicle: Klucel (hydroxypropylcellulose) (HPC)
[10] = dose: 400.0 mg/kg/injection, schedule: Q01DX009 (ip), vehicle: Klucel (hydroxypropylcellulose) (HPC)
[11] = dose: 3.12 mg/kg/injection, schedule: Q01DX009 (ip), vehicle: saline with Tween-80

COc1cc(NS(C)(=O)=O)ccc1Nc1c2ccccc2nc2ccccc12
T/C (dose: 0.5 mg/kg/injection, schedule: Q01DX009 (ip), vehicle: other): 166 % of control and 168 % of control | T/C (dose: 1.0 mg/kg/injection, schedule: Q01DX005 (ip), vehicle: other): 195 % of control | T/C (dose: 1.0 mg/kg/injection, schedule: Q01DX005 (iv), vehicle: other): 101 % of control | T/C (dose: 1.0 mg/kg/injection, schedule: Q01DX011 (ip), vehicle: saline with Tween-80): 175 % of control | T/C (dose: 2.0 mg/kg/injection, schedule: Q01DX005 (ip), vehicle: clinical formulation): 177 % of control | T/C (dose: 2.0 mg/kg/injection, schedule: Q01DX005 (iv), vehicle: clinical formulation): 99 % of control | T/C (dose: 2.0 mg/kg/injection, schedule: Q01DX005 (oral), vehicle: other): 100 % of control | T/C (dose: 2.0 mg/kg/injection, schedule: Q01DX009 (ip), vehicle: saline with Tween-80): 193 % of control | T/C (dose: 2.0 mg/kg/injection, schedule: Q01DX011 (ip), vehicle: saline with Tween-80): 209 % of control | T/C (dose: 4.0 mg/kg/injection, schedule: Q01DX005 (ip), vehicle: clinical formulation): 275 % of control | T/C (dose: 4.0 mg/kg/injection, schedule: Q01DX005 (oral), vehicle: other): 104 % of control | T/C (dose: 4.0 mg/kg/injection, schedule: Q01DX009 (ip), vehicle: saline with Tween-80): 253 % of control | T/C (dose: 4.0 mg/kg/injection, schedule: Q01DX009 (ip), vehicle: saline): 187 % of control and 213 % of control and 222 % of control | T/C (dose: 4.0 mg/kg/injection, schedule: Q01DX011 (ip), vehicle: saline with Tween-80): 63 % of control | T/C (dose: 4.0 mg/kg/injection, schedule: Q01DX011 (oral), vehicle: saline with Tween-80): 98 % of control | T/C (dose: 8.0 mg/kg/injection, schedule: Q01DX001 (iv), vehicle: clinical formulation): 105 % of control | T/C (dose: 8.0 mg/kg/injection, schedule: Q01DX005 (oral), vehicle: other): 103 % of control | T/C (dose: 8.0 mg/kg/injection, schedule: Q01DX009 (ip), vehicle: saline with Tween-80): 283 % of control | T/C (dose: 8.0 mg/kg/injection, schedule: Q01DX011 (oral), vehicle: saline with Tween-80): 92 % of control | T/C (dose: 16.0 mg/kg/injection, schedule: Q01DX001 (iv), vehicle: clinical formulation): 112 % of control

Nc1nc(N)c2cc(CNc3ccc(C(=O)NC(CC(=O)O)CC(=O)O)cc3)ccc2n1
T/C (dose: 0.04 mg/kg/injection, schedule: Q01DX009 (ip), vehicle: Klucel (hydroxypropylcellulose) (HPC)): 87 % of control | T/C (dose: 0.09 mg/kg/injection, schedule: Q01DX009 (ip), vehicle: Klucel (hydroxypropylcellulose) (HPC)): 89 % of control | T/C (dose: 0.39 mg/kg/injection, schedule: Q01DX009 (ip), vehicle: Klucel (hydroxypropylcellulose) (HPC)): 87 % of control | T/C [1]: 110 % of control | T/C [2]: 90 % of control | T/C [3]: 95 % of control | T/C [4]: 87 % of control

S=c1c2[nH]cnc2ncn1CCSC1=NC=NC2=NC=NC21 (centres undefined)
T/C (dose: 12.5 mg/kg/injection, schedule: Q01DX009 (ip), vehicle: saline): 98 % of control | T/C (dose: 25.0 mg/kg/injection, schedule: Q01DX009 (ip), vehicle: saline): 104 % of control | T/C [5]: 92 % of control | T/C [6]: 89 % of control

O=C1CCC2=C3C4CCCC5OC6CC(=O)CCC6=C(C6CCCC(OC2C1)C36)C54 (centres undefined)
T/C [5]: 102 % of control | T/C (dose: 100.0 mg/kg/injection, schedule: Q01DX009 (ip), vehicle: saline): 102 % of control | T/C (dose: 200.0 mg/kg/injection, schedule: Q01DX009 (ip), vehicle: saline): 97 % of control | T/C [6]: 96 % of control

Cc1cccc2c1CC(C(C)C)C2 (centres undefined)
T/C [4]: 105 % of control | T/C [7]: 93 % of control

C[C@]12CCC(=O)C=C1CC[C@@H]1[C@@H]2C(=O)C[C@@]2(C)[C@H]1CC[C@]2(O)C(=O)CO
T/C (dose: 50.0 mg/kg/injection, schedule: Q01DX009 (ip), vehicle: Klucel (hydroxypropylcellulose) (HPC)): 106 % of control | T/C [8]: 93 % of control | T/C [9]: 108 % of control | T/C [10]: 117 % of control

CS(C)(O)NC(N)=O
T/C (dose: 50.0 mg/kg/injection, schedule: Q01DX009 (ip), vehicle: water): 105 % of control | T/C (dose: 100.0 mg/kg/injection, schedule: Q01DX009 (ip), vehicle: water): 103 % of control | T/C (dose: 200.0 mg/kg/injection, schedule: Q01DX009 (ip), vehicle: water): 100 % of control | T/C (dose: 400.0 mg/kg/injection, schedule: Q01DX009 (ip), vehicle: water): 105 % of control

Cc1c2oc3c(C)ccc(C(=O)NC4C(=O)NC(C(C)C)C(=O)N5CCCC5C(=O)N(C)CC(=O)N(C)C(C)C(=O)OC4C)c3nc-2c(C(=O)NC2C(=O)NC(C(C)C)C(=O)N3CCCC3C(=O)N(C)CC(=O)N(C)C(C)C(=O)OC2C)c(N)c1=O (centres undefined) (I: TVP[Sar][NMeA] / II: TVP[Sar][NMeA]; ester I:1-I:C, II:1-II:C; linker I:N-II:N via Actinocin(9to1); configuration not given here)
T/C (dose: 0.25 mg/kg/injection, schedule: Q04DX003 (ip), vehicle: saline + alcohol): 116 % of control | T/C (dose: 0.5 mg/kg/injection, schedule: Q04DX003 (ip), vehicle: saline + alcohol): 118 % of control | T/C (dose: 1.0 mg/kg/injection, schedule: Q04DX003 (ip), vehicle: saline + alcohol): 112 % of control and 113 % of control | T/C (dose: 2.0 mg/kg/injection, schedule: Q04DX003 (ip), vehicle: saline + alcohol): 116 % of control and 104 % of control | T/C (dose: 4.0 mg/kg/injection, schedule: Q04DX003 (ip), vehicle: saline + alcohol): 115 % of control

O=C1C2CC=CCC2C(=O)N1SC(Cl)(Cl)Cl (centres undefined)
T/C (dose: 0.78 mg/kg/injection, schedule: Q01DX009 (ip), vehicle: saline with Tween-80): 90 % of control and 97 % of control | T/C (dose: 1.56 mg/kg/injection, schedule: Q01DX009 (ip), vehicle: saline with Tween-80): 97 % of control | T/C [11]: 89 % of control | T/C [1]: 93 % of control | T/C [2]: 88 % of control | T/C [3]: 89 % of control

CC(NC(=O)C(Cc1cnc[nH]1)NC(=O)OCc1ccccc1)C(=O)O (centres undefined)
T/C [8]: 98 % of control | T/C [9]: 104 % of control | T/C [10]: 98 % of control

O=C(O)CC(NC(=O)CP(=O)(O)O)C(=O)O.[NH-]C1CCCCC1[NH-].[Pt+2] (centres undefined)
T/C (dose: 0.78 mg/kg/injection, schedule: Q01DX009 (ip), vehicle: dextrose): 157 % of control | T/C (dose: 3.12 mg/kg/injection, schedule: Q01DX009 (ip), vehicle: dextrose): 175 % of control

CC(=O)C1=C(O)C2(O)C(=O)c3c(c(C)c4ccc(C)c(O)c4c3O)CC2C(N)C1=O (centres undefined)
T/C (dose: 3.75 mg/kg/injection, schedule: Q01DX009 (ip), vehicle: saline + alcohol): 109 % of control | T/C (dose: 7.3 mg/kg/injection, schedule: Q01DX009 (ip), vehicle: saline + alcohol): 120 % of control | T/C (dose: 7.5 mg/kg/injection, schedule: Q01DX009 (ip), vehicle: saline + alcohol): 114 % of control

COc1ccc(/C=C/C(=O)c2cc(C(=O)O)c(OC)cc2OC)cc1OC
T/C [2]: 100 % of control | T/C (dose: 12.5 mg/kg/injection, schedule: Q01DX009 (ip), vehicle: suspension in saline): 106 % of control | T/C [3]: 94 % of control | T/C (dose: 25.0 mg/kg/injection, schedule: Q01DX009 (ip), vehicle: suspension in saline): 101 % of control | T/C [4]: 96 % of control | T/C (dose: 50.0 mg/kg/injection, schedule: Q01DX009 (ip), vehicle: suspension in saline): 106 % of control | T/C [7]: 88 % of control | T/C (dose: 100.0 mg/kg/injection, schedule: Q01DX009 (ip), vehicle: suspension in saline): 96 % of control | T/C (dose: 200.0 mg/kg/injection, schedule: Q01DX009 (ip), vehicle: saline with Tween-80): 96 % of control | T/C (dose: 200.0 mg/kg/injection, schedule: Q01DX009 (ip), vehicle: suspension in saline): 108 % of control | T/C (dose: 400.0 mg/kg/injection, schedule: Q01DX009 (ip), vehicle: suspension in saline): 98 % of control

COc1ccc(C(Cn2ccnc2)Sc2ccc(Cl)c(Cl)c2)cc1 (centres undefined)
T/C [11]: 94 % of control | T/C [1]: 92 % of control and 96 % of control and 107 % of control | T/C [2]: 95 % of control and 96 % of control and 103 % of control | T/C [3]: 95 % of control and 97 % of control and 100 % of control
